Experimental findings from patent publication US8658353B2, “Liver cell toxicity assay” (Corning Incorporated, priority 2008, dated 2014) are described below.

Data set [1] has as its system primary liver cells. Description: Label-free biosensor DMR assay, direct exposure of primary liver cells in biosensor sandwich culture. Format: cell-based, Human. The note with it: for DMR signal upon exposure to compound alone: all doses examined. As to the method: Collagen coating of the biosensor microplates was achieved by dispensing 10 μl collagen I (10 μg/ml) into each well, and followed by slow drying over night under controlled vacuum condition. This coating process takes advantage of slow self-assembly of collagen I, and results in an un-even coating consisting of a series of clusters of collagen I, thus providing microscale or nanoscale topology of ECM materials to liver cells to form Epic® 384well biosensor microplate collagen coated.
The RWG biosensor exploits its evanescent wave to measure ligand-induced DMR signals in cells. The evanescent wave extends into the cells and exponentially decays over distance, leading to a characteristic sensing volume of ˜150 nm, implying that any optical response mediated through the receptor activation only represents an average over the portion of the cell that the evanescent wave is sampling. The aggregation of many cellular events downstream the receptor activation determines the kinetics and amplitudes of a ligand-induced DMR.
(§1) The cell responses were recorded continuously.

Data set [2] has as its system human lung cancer cell line A549. Nature of the data set: Label-free biosensor DMR assay of A549 cells exposed to 2 mM H2O2 with or without thrombin pretreatment. Format: cell-based. As to the method:
The kinetic responses were normalized at the time point 2 min before the addition of H2O2.
as §1
The large amplitude of the second N-DMR signal indicates the significant loss of local biomass density within the detection zone of the biosensor, indicative of cell apoptosis which leads to the release of cellular matters from the bottom portion of cells cultured on the biosensor surface. […] The onset time for the second N-DMR event is delayed by at least 15 min.

Data set [3] has as its system primary liver cells. Nature of the data set: Label-free biosensor DMR assay, 1 mM H2O2 as amplifying marker after compound pretreatment of primary liver cells. Particulars: then 1 mM H2O2.

Take `OO` [H2O2, hydrogen peroxide]: the “DMR response (change in local biomass)” value with primary liver cells [1] (1 mM H2O2) is given as “did not trigger any significant change in local biomass”. Moreover, in the data set with primary liver cells [1] (5 mM H2O2), the DMR response result was “significant negative DMR (N-DMR) signal”. In the data set with primary liver cells [1] (after treatment with 5 mM H2O2), the “onset time for the N-DMR signal” value is “around 30 min”. For the same compound, the “DMR signal of A549 cells” value in data set [2] (2 mM H2O2, no thrombin pretreatment) is on record as “complicated DMR signal, consisting of four phases”.

Take `C[S+]([O-])c1ccc(-c2nc(-c3ccncc3)c(-c3ccc(F)cc3)[nH]2)cc1` (centres unmarked) [SB203580]: the “DMR signal upon exposure to compound alone” value in the data set with primary liver cells [1] (625 nanomolar up to 10000 nanomolar) is “did not result in any significant DMR signal”. The “H2O2-induced DMR signal after pretreatment” value in the data set on primary liver cells [3] (high doses of SB203580, pretreatment ~1-4 hrs) is “responded to 1 mM H2O2 exposure with a N-DMR”.

On to `CO[C@H]1/C=C/O[C@@]2(C)Oc3c(C)c(O)c4c(O)c(c(/C=N/N5CCN(C)CC5)c(O)c4c3C2=O)NC(=O)/C(C)=C\C=C\[C@H](C)[C@H](O)[C@@H](C)[C@@H](O)[C@@H](C)[C@H](OC(C)=O)[C@@H]1C` [rifampin, Rifampin], for which the “DMR signal upon exposure to compound alone” value with primary liver cells [1] (rifampin 625 nM up to 40000 nM) is on record as “did not result in any significant loss in local biomass density or cause any significant DMR signal”. Moreover, the “H2O2-induced DMR signal after pretreatment” value in the data set with primary liver cells [3] (rifampin pretreatment ~1-4 hrs) is on record as “rifampin dose dependent N-DMR”.

Turning to thrombin, the “delay of onset time for the second N-DMR event” value in data set [2] (thrombin pretreatment 1 to 16 unit/ml, then 2 mM H2O2) was “at least 15 min”. Besides, the “potency to alter the H2O2 response, based on amplitudes of the rapid P-DMR event” value in data set [2] (thrombin pretreatment 1 hr, then 2 mM H2O2, said to correspond to EC50 for endogenous PAR1 activation) is reported as approximately 4 unit/ml. Moreover, in data set [2] (thrombin pretreatment, then 2 mM H2O2), the “effect on H2O2-induced A549 apoptosis” value is reported as “protective of H2O2-induced A549 apoptosis”.
